Results published in the NIST ThermoML archive (doi:10.1021/je300134c).
± gives the expanded uncertainty stated by the source.

Legend:
[1] = Liquid; for speed of sound: Sing-around technique in a fixed-path interferometer; for mass density: Vibrating tube method
[2] = xn = mol fraction of the nth substance listed; conditions: 101 kPa, Liquid, x2 = 0; for mass density: Vibrating tube method; for speed of sound: Sing-around technique in a fixed-path interferometer

SMILES	speed of sound ([1]; 288.15 K, 101.33 kPa) [m/s]	mass density ([1]; 288.15 K, 101.33 kPa) [kg/m3]	speed of sound ([1]; 298.15 K, 101.33 kPa) [m/s]	mass density ([1]; 298.15 K, 101.33 kPa) [kg/m3]	speed of sound ([1]; 308.15 K, 101.33 kPa) [m/s]	mass density ([1]; 308.15 K, 101.33 kPa) [kg/m3]	speed of sound ([1]; 318.15 K, 101.33 kPa) [m/s]	mass density ([1]; 318.15 K, 101.33 kPa) [kg/m3]	speed of sound ([1]; 328.15 K, 101.33 kPa) [m/s]	mass density ([1]; 328.15 K, 101.33 kPa) [kg/m3]	speed of sound ([1]; 338.15 K, 101.33 kPa) [m/s]	mass density ([1]; 338.15 K, 101.33 kPa) [kg/m3]	speed of sound ([2]; 318.15 K) [m/s]	speed of sound ([2]; 328.15 K) [m/s]	mass density ([2]; 328.15 K) [kg/m3]	speed of sound ([2]; 338.15 K) [m/s]	mass density ([2]; 338.15 K) [kg/m3]	further results
CCCC[n+]1ccn(CC)c1.O=S(=O)([O-])C(F)(F)F	1396.3 ± 2.1	1269.97 ± 1.4	1373.1 ± 2.1	1262.21 ± 1.4	1350.6 ± 2.1	1254.44 ± 1.4	1328.6 ± 2.1	1246.71 ± 1.4	1307.1 ± 2.1	1239.01 ± 1.4	1286.1 ± 2.1	1231.35 ± 1.4	–	–	–	–	–	speed of sound ([1]; 278.15 K, 101.33 kPa): 1420.6 ± 2.1 m/s; mass density ([1]; 278.15 K, 101.33 kPa): 1278.02 ± 1.5 kg/m3
CCCC[N+]1(C)CCCC1.O=S(=O)([O-])C(F)(F)F [1-butyl-1-methylpyrrolidinium trifluoromethanesulfonate]	1486.1 ± 1.2	1259.74 ± 0.45	1461.4 ± 1.2	1252.26 ± 0.44	1437.8 ± 1.2	1245.09 ± 0.44	1414.9 ± 1.2	1237.94 ± 0.43	1392.7 ± 1.2	1230.81 ± 0.42	1371.1 ± 1.2	1223.73 ± 0.42	–	–	–	–	–	speed of sound ([1]; 278.15 K, 101.33 kPa): 1513.5 ± 1.2 m/s; mass density ([1]; 278.15 K, 101.33 kPa): 1267.23 ± 0.45 kg/m3
CCCCn1cc[n+](C)c1.O=S(=O)([O-])C(F)(F)F [1-butyl-3-methylimidazolium trifluoromethanesulfonate]	1416 ± 2.1	1304.56 ± 1.5	1393 ± 2.1	1296.67 ± 1.5	1370.7 ± 2.1	1288.78 ± 1.5	1349 ± 2.1	1280.95 ± 1.5	1327.8 ± 2.1	1273.16 ± 1.4	1307 ± 2.1	1265.44 ± 1.4	–	–	–	–	–	–
O [water]	–	–	–	–	–	–	–	–	–	–	–	–	–	–	–	–	–	mass density ([1]; 278.15 K, 101 kPa): 999.99 ± 0.03 kg/m3; speed of sound ([1]; 318.15 K, 101 kPa): 1536.8 ± 0.76 m/s; speed of sound ([1]; 328.15 K, 101 kPa): 1547.7 ± 0.76 m/s; mass density ([1]; 328.15 K, 101 kPa): 985.7 ± 0.04 kg/m3; speed of sound ([1]; 338.15 K, 101 kPa): 1553.6 ± 0.76 m/s; mass density ([1]; 338.15 K, 101 kPa): 980.56 ± 0.04 kg/m3
O [water] + CCCC[N+]1(C)CCCC1.O=S(=O)([O-])C(F)(F)F	–	–	–	–	–	–	–	–	–	–	–	–	1536.8 ± 0.76	1547.7 ± 0.76	985.7 ± 0.04	1553.6 ± 0.76	980.56 ± 0.04	mass density ([2]; 278.15 K): 999.99 ± 0.03 kg/m3
O [water] + CCCC[n+]1ccn(CC)c1.O=S(=O)([O-])C(F)(F)F	–	–	–	–	–	–	–	–	–	–	–	–	1536.8 ± 0.76	1547.7 ± 0.76	985.7 ± 0.04	1553.6 ± 0.76	980.56 ± 0.04	mass density ([2]; 278.15 K): 999.99 ± 0.03 kg/m3
O [water] + CCCCn1cc[n+](C)c1.O=S(=O)([O-])C(F)(F)F	–	–	–	–	–	–	–	–	–	–	–	–	1536.8 ± 0.76	1547.7 ± 0.76	985.7 ± 0.04	1553.6 ± 0.76	980.56 ± 0.04	–
